Reference: patent US8735424B2 (Novartis AG, priority 2008, dated 2014)

Legend:
KMS11 cells = assay: Cell proliferation assay (CellTiter-Glo); type: cell-based; details: KMS-11, 72 h; KMS11 human myeloma cell line, 3 days
Experimental: KMS11 (human myeloma cell line), were cultured in IMDM supplemented with 10% FBS, sodium pyruvate and antibiotics. Cells were plated in the same medium at a density of 2000 cells per well into 96 well tissue culture plates, with outside wells vacant, on the day of assay. MM1.s (human myeloma cell line), were cultured in RPMI1640 supplemented with 10% FBS, sodium pyruvate and antibiotics. Cells were plated in the same medium at a density of 5000 cells per well into 96 well tissue culture plates, with outside wells vacant, on the day of assay.
Test compounds supplied in DMSO were diluted into DMSO at 500 times the desired final concentrations before dilution into culture media to 2 times final concentrations. Equal volumes of 2× compounds were added to the cells in 96 well plates and incubated at 37° C. for 3 days.
After 3 days plates were equilibrated to room temperature and equal volume of CellTiter-Glow Reagent (Promega) was added to the culture wells. The plates were agitated briefly and luminescent signal was measured with luminometer. The percent inhibition of the signal seen in cells treated with DMSO alone vs. cells treated with control compound was calculated and used to determine EC50 values (i.e., the concentration of a test compound that is required to obtain 50% of the maximum effect in the cells) for tested compounds, as shown in Example 41.

PIM1 = PIM1 (Homo sapiens, UniProt P11309); assay: Pim1 ATP depletion assay; type: biochemical; details: 20 μM ATP, 2.5 nM PIM1
Experimental: The activity of PIM1 is measured using a luciferase-luciferin based ATP detection reagent to quantify ATP depletion resulting from kinase-catalyzed phosphoryl transfer to a peptide substrate. Compounds to be tested are dissolved in 100% DMSO and directly distributed into white 384-well plates at 0.5 μl per well. To start the reaction, 10 μl of 5 nM Pim1 kinase and 80 μM BAD peptide (RSRHSSYPAGT-OH) in assay buffer (50 mM HEPES pH 7.5, 5 mM MgCl2, 1 mM DTT, 0.05% BSA) is added into each well. After 15 minutes, 10 μl of 40 μM ATP in assay buffer is added. Final assay concentrations are 2.5 nM PIM1, 20 μM ATP, 40 μM BAD peptide and 2.5% DMSO. The reaction is performed until approximately 50% of the ATP is depleted, then stopped with the addition of 20 μl KinaseGlo Plus (Promega Corporation) solution. The stopped reaction is incubated for 10 minutes and the remaining ATP detected via luminescence on the Victor2 (Perkin Elmer). […] IC50, the half maximal inhibitory concentration, represents the concentration of a test compound that is required for 50% inhibition of its target in vitro.

PIM3 = PIM3 (Homo sapiens, UniProt Q86V86); assay: Pim3 ATP depletion assay; type: biochemical; details: 40 μM ATP
Experimental: The activity of PIM3 is measured using a luciferase-luciferin based ATP detection reagent to quantify ATP depletion resulting from kinase-catalyzed phosphoryl transfer to a peptide substrate. Compounds to be tested are dissolved in 100% DMSO and directly distributed into white 384-well plates at 0.5 μl per well. To start the reaction, 10 μl of 10 nM Pim3 kinase and 200 μM BAD peptide (RSRHSSYPAGT-OH) in assay buffer (50 mM HEPES pH 7.5, 5 mM MgCl2, 1 mM DTT, 0.05% BSA) is added into each well. After 15 minutes, 10 μl of 80 μM ATP in assay buffer is added. Final assay concentrations are 5 nM PIM1, 40 μM ATP, 100 μM BAD peptide and 2.5% DMSO. The reaction is performed until approximately 50% of the ATP is depleted, then stopped by the addition of 20 μl KinaseGlo Plus (Promega Corporation) solution. The stopped reaction is incubated for 10 minutes and the remaining ATP detected via luminescence on the Victor2 (Perkin Elmer).

PIM2 = PIM2 (Homo sapiens, UniProt Q9P1W9); assay: Pim2 ATP depletion assay; type: biochemical; details: 4 μM ATP, 5 nM PIM2
Experimental: The activity of PIM2 is measured using a luciferase-luciferin based ATP detection reagent to quantify ATP depletion resulting from kinase-catalyzed phosphoryl transfer to a peptide substrate. Compounds to be tested are dissolved in 100% DMSO and directly distributed into white 384-well plates at 0.5 μl per well. To start the reaction, 10 μl of 10 nM Pim2 kinase and 20 μM BAD peptide (RSRHSSYPAGT-OH) in assay buffer (50 mM HEPES pH 7.5, 5 mM MgCl2, 1 mM DTT, 0.05% BSA) is added into each well. After 15 minutes, 10 μl of 8 μM ATP in assay buffer is added. Final assay concentrations are 5 nM PIM2, 4 μM ATP, 10 μM BAD peptide and 2.5% DMSO. The reaction is performed until approximately 50% of the ATP is depleted, then stopped with the addition of 20 μl KinaseGlo Plus (Promega Corporation) solution. The stopped reaction is incubated for 10 minutes and the remaining ATP detected via luminescence on the Victor2 (Perkin Elmer).

Chain of PIM2 (Q9P1W9 whole entry): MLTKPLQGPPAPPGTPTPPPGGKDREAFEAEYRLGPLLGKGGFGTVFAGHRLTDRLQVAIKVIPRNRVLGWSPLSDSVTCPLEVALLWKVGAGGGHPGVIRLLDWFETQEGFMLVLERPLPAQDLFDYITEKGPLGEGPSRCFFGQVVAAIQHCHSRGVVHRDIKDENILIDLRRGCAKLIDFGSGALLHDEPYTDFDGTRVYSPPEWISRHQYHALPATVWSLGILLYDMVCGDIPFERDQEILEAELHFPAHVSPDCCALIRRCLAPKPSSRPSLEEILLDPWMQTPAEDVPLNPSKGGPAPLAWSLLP
Chain of PIM1 (P11309 whole entry): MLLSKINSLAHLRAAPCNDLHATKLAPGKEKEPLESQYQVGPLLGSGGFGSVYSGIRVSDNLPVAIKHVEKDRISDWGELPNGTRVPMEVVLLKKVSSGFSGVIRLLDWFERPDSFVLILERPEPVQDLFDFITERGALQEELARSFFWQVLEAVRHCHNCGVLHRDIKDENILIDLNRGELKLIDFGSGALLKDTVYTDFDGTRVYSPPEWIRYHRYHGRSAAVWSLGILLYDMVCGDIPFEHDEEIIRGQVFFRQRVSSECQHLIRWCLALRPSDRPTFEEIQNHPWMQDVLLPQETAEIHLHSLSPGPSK

Compound | IC50 (PIM1) [nM] | IC50 (PIM3) [nM] | IC50 (PIM2) [nM] | EC50 (KMS11 cells) [nM]
Nc1ccc(-c2nccs2)nc1-c1cc2c(N3CCC[C@H](N)C3)c(F)cnc2cn1 [Example 1, (S)-2-(4-(3-aminopiperidin-1-yl)-3-fluoro-1,7-naphthyridin-6-yl)-6-(thiazol-2-yl)pyridin-3-amine] | 2 | 7 | 40 | 870
CC(C)NC(=O)c1ccc(F)c(-c2ccc(N)c(-c3cc4c(N5CCC[C@H](N)C5)c(F)cnc4cn3)n2)c1 [Example 2, (S)-3-(5-amino-6-(4-(3-aminopiperidin-1-yl)-3-fluoro-1,7-naphthyridin-6-yl)pyridin-2-yl)-4-fluoro-N-isopropylbenzamide] | 18 | 37 | 258 | –
Cc1cc(-c2ccnc3cnc(-c4nc(-c5c(F)cccc5F)ccc4N)cc23)cc(N)n1 [Example 3, 4-(6-(3-amino-6-(2,6-difluorophenyl)pyridin-2-yl)-1,7-naphthyridin-4-yl)-6-methylpyridin-2-amine] | 15 | 25 | 809 | –
Cc1cc(-c2ccnc3cnc(-c4nc(-c5cc(C(=O)NC(C)C)ccc5F)ccc4N)cc23)cc(N)n1 [Example 4, 3-(5-amino-6-(4-(2-amino-6-methylpyridin-4-yl)-1,7-naphthyridin-6-yl)pyridin-2-yl)-4-fluoro-N-isopropylbenzamide] | 24 | 40 | 350 | –
Nc1ccc(-c2nccs2)nc1-c1cc2c(N3CCC[C@H](N)C3)ccnc2cn1 [Example 5, (S)-2-(4-(3-aminopiperidin-1-yl)-1,7-naphthyridin-6-yl)-6-(thiazol-2-yl)pyridin-3-amine] | 1 | 4 | 9 | 840
Nc1cnc(-c2ccccc2F)nc1-c1cc2c(N3CCC[C@H](N)C3)ccnc2cn1 [Example 6, (S)-4-(4-(3-aminopiperidin-1-yl)-1,7-naphthyridin-6-yl)-2-(2-fluorophenyl)pyrimidin-5-amine] | 4 | 3 | 59 | 1800
Nc1ccc(-c2c(F)cccc2F)nc1-c1cc2c(N3CCC[C@@H](N)C3)ccnc2cn1 [Example 7, (R)-2-(4-(3-aminopiperidin-1-yl)-1,7-naphthyridin-6-yl)-6-(2,6-difluorophenyl)pyridin-3-amine] | 5 | 7 | 24 | 2800
CC(C)NC(=O)c1ccc(F)c(-c2ccc(N)c(-c3cc4c(N5CCC[C@@H](N)C5)ccnc4cn3)n2)c1 [Example 8, (R)-3-(5-amino-6-(4-(3-aminopiperidin-1-yl)-1,7-naphthyridin-6-yl)pyridin-2-yl)-4-fluoro-N-isopropylbenzamide] | 16 | 21 | 81 | 4500
Nc1ccc(-c2c(F)cccc2F)nc1-c1cc2c(N3CCC[C@H](N)C3)ccnc2cn1 [Example 9, (S)-2-(4-(3-aminopiperidin-1-yl)-1,7-naphthyridin-6-yl)-6-(2,6-difluorophenyl)pyridin-3-amine] | 1 | 6 | 40 | 3700
COc1cccc(-c2ccc(N)c(-c3cc4c(N5CCC[C@H](N)C5)ccnc4cn3)n2)n1 [Example 14, (S)-6-(4-(3-aminopiperidin-1-yl)-1,7-naphthyridin-6-yl)-6′-methoxy-2,2′-bipyridin-5-amine] | 6 | 8 | 132 | –
Nc1ccc(-c2ccc(F)cc2F)nc1-c1cc2c(N3CCC[C@H](N)C3)ccnc2cn1 [Example 17, (S)-2-(4-(3-aminopiperidin-1-yl)-1,7-naphthyridin-6-yl)-6-(2,4-difluorophenyl)pyridin-3-amine] | 4 | 13 | 151 | –

The next lines start with results.

IC50 (PIM1) [nM] | IC50 (PIM3) [nM] | IC50 (PIM2) [nM] | Compound | EC50 (KMS11 cells) [nM]
2 | 8 | 160 | Nc1ccc(-c2cccc(S(N)(=O)=O)c2)nc1-c1cc2c(N3CCC[C@H](N)C3)ccnc2cn1 [Example 21, (S)-3-(5-amino-6-(4-(3-aminopiperidin-1-yl)-1,7-naphthyridin-6-yl)pyridin-2-yl)benzenesulfonamide] | –
4 | 10 | 280 | CS(=O)(=O)c1cccc(-c2ccc(N)c(-c3cc4c(N5CCC[C@H](N)C5)ccnc4cn3)n2)c1 [Example 22, (S)-2-(4-(3-aminopiperidin-1-yl)-1,7-naphthyridin-6-yl)-6-(3-(methylsulfonyl)phenyl)pyridin-3-amine] | –
16 | 26 | 331 | N[C@H]1CCCN(c2ccnc3ccc(-c4cccc(-c5c(F)cccc5F)n4)cc23)C1 [Example 26, (S)-1-(6-(6-(2,6-difluorophenyl)pyridin-2-yl)quinolin-4-yl)piperidin-3-amine] | –
6 | 8 | 132 | N[C@H]1CCCN(c2ccnc3ccc(-c4nccc(-c5c(F)cccc5F)n4)cc23)C1 [Example 29] | –
8 | 20 | 347 | N[C@H]1CCCN(c2ccnc3ccc(-c4nccc(-c5ccccc5F)n4)cc23)C1 [Example 30] | –
27 | 42 | 604 | N[C@@H]1CN(c2ccnc3ccc(-c4cccc(-c5c(F)cccc5F)n4)cc23)CC[C@H]1F [Example 32, (3R,4R)-1-(6-(6-(2,6-difluorophenyl)pyridin-2-yl)quinolin-4-yl)-4-fluoropiperidin-3-amine] | –
22 | 21 | 244 | N[C@@H]1CN(c2ccnc3ccc(-c4cccc(-c5nccs5)n4)cc23)CC[C@H]1F [Example 33, (3R,4R)-4-fluoro-1-(6-(6-(thiazol-2-yl)pyridin-2-yl)quinolin-4-yl)piperidin-3-amine] | –
2 | 7 | 33 | C[C@@H]1C[C@H](N)CN(c2ccnc3ccc(-c4cccc(-c5c(F)cccc5F)n4)cc23)C1 [Example 34, (3S,5R)-1-(6-(6-(2,6-difluorophenyl)pyridin-2-yl)quinolin-4-yl)-5-methylpiperidin-3-amine] | –
19 | 21 | 373 | N[C@@H]1CN(c2ccnc3ccc(-c4cccc(-c5c(F)cccc5F)n4)cc23)CC[C@H]1O [Example 35, (3R,4R)-3-amino-1-(6-(6-(2,6-difluorophenyl)pyridin-2-yl)quinolin-4-yl)piperidin-4-ol] | –
9 | 9 | 75 | N[C@@H]1CN(c2ccnc3ccc(-c4cccc(-c5nccs5)n4)cc23)CC[C@H]1O [Example 36, (3R,4R)-3-amino-1-(6-(6-(thiazol-2-yl)pyridin-2-yl)quinolin-4-yl)piperidin-4-ol] | –
